Assay results: patent publication US6077871A, “Droloxifene pharmaceutical compositions” (Pfizer Inc., priority 1998, dated 2000)
Where a name gives a salt, the structure may show the parent alone. Read-outs that look alike come from different tables or passages of the source.

Columns and labels:
[1] = Stability of droloxifene out of light / in light-protected solutions; format: physicochemical
From the text: The results in Table 2 (below) show a stability enhancement of droloxifene with the inclusion of cyclodextrins. The concentration of cyclodextrin that results in the greatest stabilizing effect depends on the efficiency of the formation of the droloxifene-cyclodextrin inclusion complex, that is, the stability constant, as well as the initial concentration of droloxifene present. […] This stability improvement is further useful for preconstituted aqueous solutions which must have a long practical shelf-life, e.g., 2 years, even if packaged in a partially light-protected package. […] While not wishing to be held to any theory, it is believed that incorporation of droloxifene in the cyclodextrin cavity minimizes a cis-trans isomerization reaction, thus reducing the formation of the isomeric decay product and resulting in an overall stability improvement.

[2] = pH 3, 30° C., 840 footcandle fluorescent light
Experimental: The stability of droloxifene citrate was determined at pH 3 with various concentrations of SBECD and HPBCD. For this protocol, the 0.02 M sodium phosphate buffer of pH 3 and the cyclodextrin solutions were prepared as for the droloxifene solubility determination described previously. 10 mL of each cyclodextrin solution was added to an 18 mL clear glass vial with screw cap which contained a previously weighed amount of droloxifene citrate. The vials were swirled until dissolution of droloxifene citrate was complete. The concentration of droloxifene citrate ranged from 0.05-0.1 mgA/mL. Concentrations of HPBCD included 0.2, 2, 4, 7 and 10% w/v. Concentrations of SBECD included 0.33 and 3.3% w/v. The vials were stored in an 840 footcandle fluorescent light box at 30° C. The solutions were removed briefly from time to time to allow drug concentration determination using the HPLC method described as for the solubility determination.

[3] = pH 3
Experimental: The solubility of droloxifene citrate was determined in an aqueous phosphate buffer at pH 3, without and with various levels of cyclodextrins. Solubility testing of droloxifene citrate in solutions of the cydodextrins, SBECD and HPBCD, was conducted using an equilibrium solubility method. The following protocol was employed for the solubility determination.
Separate 0.02 M aqueous buffer solutions of phosphoric acid (H3 PO4) and 0.02 M dibasic sodium phosphate (Na2 HPO4) were prepared by dissolving 2.25 gm and 2.84 gm, respectively, into separate one liter portions of deionized water and stirring with a magnetic stir bar until dissolved. To obtain a pH 3 buffer, the two previous buffers were combined, at an approximate ratio of 2:1 (H3 PO4 buffer:Na2 HPO4 buffer). The final volume of the resulting pH 3 buffer was not critical.
To 25 mL volumetric flasks, weights of either HPBCD or SBECD were added to produce final concentrations of each cyclodextrin shown in Table 1. For example, to prepare a 2% w/v solution of HPBCD in pH 3 phosphate buffer, 0.5 gm of HPBCD was accurately added to a 25 mL volumetric flask. […]
To 5 mL glass vials with screw caps, 3 mL of the desired cyclodextrin solution was added. […] The contents were filtered into a clean screw cap vial through a Millex-HV 0.45 μm filter (Millipore, Bedford, Mass.) and the drug concentration determined by an HPLC method. […]

| stability out of light ([1]; out of light vs in light) | Decay Rate Constant ([2]; 0.2% HPBCD) [h⁻¹] | Time Required for 1% Decay ([2]; 0.2% HPBCD) [h] | Decay Rate Constant ([2]; 0.33% SBECD) [h⁻¹] | Time Required for 1% Decay ([2]; 0.33% SBECD) [h] | Decay Rate Constant ([2]; 2% HPBCD) [h⁻¹] | Time Required for 1% Decay ([2]; 2% HPBCD) [h] | Decay Rate Constant ([2]; 3.3% SBECD) [h⁻¹] | Time Required for 1% Decay ([2]; 3.3% SBECD) [h] | Decay Rate Constant ([2]; no cyclodextrin) [h⁻¹] | Time Required for 1% Decay ([2]; no cyclodextrin) [h] | SMILES | stability in light-protected solutions ([1]; light-protected solutions with beta-cyclodextrins present) | solubility with cyclodextrin [3] |
| --- | --- | --- | --- | --- | --- | --- | --- | --- | --- | --- | --- | --- | --- |
| significantly more stable out of light | – | – | – | – | – | – | – | – | – | – | CC/C(=C(/c1ccc(OCCN(C)C)cc1)c1cccc(O)c1)c1ccccc1 [droloxifene, 1-[4'-(2-dimethylaminoethoxy)phenyl]-1-(3'-hydroxyphenyl)-2-phenylbut-1-ene] | an improvement in stability is also observed | – |
| – | 0.0094 | 1.1 | 0.0090 | 1.1 | 0.0030 | 3.3 | 0.0070 | 1.4 | 0.0123 | 0.8 | CC/C(=C(/c1ccc(OCCN(C)C)cc1)c1cccc(O)c1)c1ccccc1 [droloxifene citrate] | – | enhancement of droloxifene citrate solubility with cyclodextrin |
